These results are taken from patent publication US7915270B2, “Oxazole ketones as modulators of fatty acid amide hydrolase” (The Scripps Research Institute, priority 2006, dated 2011).

Bounds are passed on as bounds.

Data set [1] deals with acute thermal nociception. Conditions: rats; WO 02/087569; cited from earlier work.
The subject of another data set is neuropathic pain. As to conditions: rats; WO 02/087569; cited from earlier work.
Data set [2] has as its system thermal nociception. As to conditions: cited from earlier work.
The test system of data set [3] is thermal nociception. Conditions: rats; WO 04/033652; cited from earlier work.
A further data set concerns the target T1, FAAH (Homo sapiens, UniProt O00519).
T1 sequence (O00519 1-579): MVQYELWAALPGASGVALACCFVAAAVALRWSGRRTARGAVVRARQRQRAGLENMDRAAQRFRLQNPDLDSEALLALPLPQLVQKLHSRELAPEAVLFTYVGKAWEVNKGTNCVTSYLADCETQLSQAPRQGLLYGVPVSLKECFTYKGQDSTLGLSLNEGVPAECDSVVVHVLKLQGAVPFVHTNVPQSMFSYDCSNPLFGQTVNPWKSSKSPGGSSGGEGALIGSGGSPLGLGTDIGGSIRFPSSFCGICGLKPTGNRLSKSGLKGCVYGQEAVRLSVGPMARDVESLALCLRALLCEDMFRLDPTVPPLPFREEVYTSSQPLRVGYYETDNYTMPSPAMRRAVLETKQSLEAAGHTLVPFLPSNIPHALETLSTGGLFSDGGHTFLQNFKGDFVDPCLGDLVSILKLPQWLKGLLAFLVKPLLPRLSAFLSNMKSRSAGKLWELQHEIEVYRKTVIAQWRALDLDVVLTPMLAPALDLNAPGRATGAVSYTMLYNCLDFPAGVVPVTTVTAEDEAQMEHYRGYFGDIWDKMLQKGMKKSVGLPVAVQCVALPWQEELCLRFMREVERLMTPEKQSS
As to conditions: reported; cited from earlier work.

A short description of data set [4]: Pharmacokinetic testing, intravenous bolus in rats. Type of data set: in vivo. Conditions: rat, plasma, 2 mg/kg, male Sprague Dawley rats, 1 mg/mL in 2 mL/kg. As to the method:
For each test compound, two male Sprague Dawley Rats (Charles River Laboratories; approx. 300 g body weight) were used. Animals were individually housed, provided food and water ad libitum, and were maintained on a 12 h light and dark cycle. Animals received from the vendor were surgically cannulated by the vendor with right jugular vein and left carotid artery catheters. Animals were acclimatized for at least 5 days after receipt from the vendor prior to investigations.
Animals received a bolus intravenous dose of the test compound at a dose of 1 mg/mL in a volume of 2 mL/kg via the right jugular vein catheter. The intravenous dosing solution was prepared in 55% pharmasolve, 20% cremophor, and […] physiological saline, or 100% saline adjusted to pH 8.0.
Following intravenous administration, blood was collected (sampled 0.35 mL per time point from the left carotid artery catheter) at 0.083, 0.25, 0.5, 1, 2, 4, and 6 h post-dose. Blood was collected into tubes containing EDTA and stored at 4° C. for not more than 2 h. The samples were centrifuged at 10,000 rpm in a micro-centrifuge for 5 min to obtain a plasma fraction. The plasma was stored at between −20 and −80° C. until processed for analysis. These samples were analyzed by LC-MS/MS to determine the plasma level of the compound.
Plasma level vs. time plots were created and WinNonlin (Pharsight Corp.) was used to analyze the data. A non-compartmental pharmacokinetic model was used to determine the pharmacokinetic parameters, including clearance, volume of distribution (Vd), and half-life (t1/2).

A short description of data set [5]: Solubility determination in water. Format: physicochemical. Conditions: thermodynamic from solid; in water at 5, 1 and 0.1 mg/mL; pH of resulting solutions 7-8.5. As to the method:
Physical Chemical Properties
Solubility determinations were made by mixing the test compound in water at 5 mg/mL, 1 mg/mL, and 0.1 mg/mL concentrations. The pH of the resulting solutions was 7-8.5.

A further data set concerns spasticity. As to conditions: Baker 2001; cited from earlier work.
For data set [6] the following is noted: rat; Kathuria 2003; cited from earlier work.
In another data set the test system is anxiety. Conditions: rats; Kathuria 2003; cited from earlier work.

One may read the Vd as a proportionality between amount in the body and measured concentration, not a real space. As a reminder, the clearance is the rate of elimination divided by the concentration. Higher therefore signals a high capacity for elimination. Broadly, the half-life is the time in which the quantity being followed falls by half. Usually solubility stands for how much of the substance goes into solution per volume. Read a high solubility as much dissolved substance.

Regarding `Cc1nc(-c2ccccc2)c(-c2ccccc2)n1CCCCCCNC(=O)Oc1ccccc1F` [BMS-1], the “analgesic effect in the Hargraves test” value in data set [1] is reported as “analgesic effect”. Besides, in the data set on neuropathic pain, the “analgesic effect in the Chung spinal nerve ligation model” value is on record as “analgesic effect”.
`O=C(CCCCCCc1ccccc1)c1ncc(-c2ccccn2)o1` [OL-135]: in the data set with thermal nociception [2] (rats, WO 04/033652), the “analgesic activity in the hot plate test” value was “analgesic activity”. Further, in the data set on thermal nociception [3], the “analgesic activity in the tail emersion test” value is “analgesic activity”. Moreover, on FAAH, the “inhibition of FAAH” value was “potent inhibitor”.
In data set [4], `O=C(CCCCCCc1ccccc1)c1ncc(-c2ccco2)o1` [Comp. Ex. 2, 1-(5-Furan-2-yl-oxazol-2-yl)-7-phenyl-heptan-1-one, reference compound] showed a Vd of 22.9 L/kg, a clearance of 3.8 L/h/kg and a half-life of 3.49 h. This compound returned a solubility in data set [5] of less than 0.1 mg/mL.
`CCCCCCCCCCCCCCCCS(=O)(=O)F` [AM374]: in the data set with spasticity, the “spasticity in CREAE mice” value is listed as “significantly reduce spasticity”.
As to `NC(=O)c1cccc(-c2cccc(OC(=O)NC3CCCCC3)c2)c1` [URB-597], the “analgesic efficacy in the hot plate test” value in the data set with thermal nociception [2] (rat, Kathuria 2003) was “analgesic efficacy”. For the same compound, the “analgesic efficacy in the formalin test” value in [6] is on record as “analgesic efficacy”. In the data set with anxiety, the “efficacy in the zero plus maze model of anxiety” value is “efficacy”.
In data set [4], `O=C(CCCCCCc1ccccc1)c1ncc(-c2ccccn2)o1` [Comp. Ex. 1, 7-Phenyl-1-(5-pyridin-2-yl-oxazol-2-yl)-heptan-1-one, reference compound] had a Vd of 27.3 L/kg, a clearance of 5.9 L/h/kg and a half-life of 3.23 h. In data set [5], this compound yielded a solubility of less than 0.1 mg/mL.
